In ChEMBL document CHEMBL2086302, “An investigation into the structure-activity relationships associated with the systematic modification of the β(2)-adrenoceptor agonist indacaterol” (Bioorg Med Chem Lett, 2012):
pEC50, pIC50, pKd, pKi: −log10 of the molar value.

Key:
Homo sapiens = species on record: Homo sapiens; experiment: Selectivity ratio of Ki for human beta1-adrenoceptor to Ki for human beta2-adrenoceptor
[1] = molecular target: Beta-1 adrenergic receptor (Homo sapiens, UniProt P08588); experiment: Binding affinity to human beta1-adrenoceptor by radioligand binding assay
[2] = molecular target: T1, Beta-2 adrenergic receptor (Homo sapiens, UniProt P07550); experiment: Binding affinity to human beta2-adrenoceptor by radioligand binding assay
Target sequence in this assay (P07550 whole entry): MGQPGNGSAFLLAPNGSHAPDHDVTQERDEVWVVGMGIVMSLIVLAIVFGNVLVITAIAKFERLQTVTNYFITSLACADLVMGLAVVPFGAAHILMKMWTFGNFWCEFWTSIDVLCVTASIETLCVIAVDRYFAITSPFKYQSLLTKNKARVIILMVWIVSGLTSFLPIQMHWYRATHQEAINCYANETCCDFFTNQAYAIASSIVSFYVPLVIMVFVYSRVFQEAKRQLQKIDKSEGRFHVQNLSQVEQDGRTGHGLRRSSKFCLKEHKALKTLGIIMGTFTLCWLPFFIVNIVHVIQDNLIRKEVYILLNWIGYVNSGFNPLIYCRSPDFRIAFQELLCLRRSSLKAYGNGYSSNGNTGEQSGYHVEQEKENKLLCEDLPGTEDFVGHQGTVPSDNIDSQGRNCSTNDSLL

[3] = molecular target: T1, Beta-2 adrenergic receptor; experiment: Intrinsic efficacy at beta2-adrenoceptor in human bronchial smooth-muscle cell by cAMP assay; type: functional
Target sequence in this assay (P07550 whole entry, looked up): as the sequence (P07550 whole entry) above

[4] = molecular target: Beta-2 adrenergic receptor (Cavia porcellus) (UniProt Q8K4Z4); experiment: Agonist activity at beta2-adrenoceptor in guinea-pig tracheal-strip assessed as duration of action on inhibition of electrically-stimulated muscle contraction; type: functional, tissue-based; conditions: Trachea
[5] = molecular target: Beta-2 adrenergic receptor (Cavia porcellus, UniProt Q8K4Z4); experiment: Agonist activity at beta2-adrenoceptor in guinea-pig tracheal-strip assessed as inhibition of electrically-stimulated muscle contraction; type: functional, tissue-based, Trachea
D(2) dopamine receptor [6] = molecular target: T2, D(2) dopamine receptor (Homo sapiens, UniProt P14416); experiment: Agonist activity at human dopamine D2 receptor expressed in CHO cells assessed as increase in GTPgamma35S binding by scintillation proximity assay; type: functional, cell-based
D(2) dopamine receptor [7] = molecular target: T2, D(2) dopamine receptor; experiment: Intrinsic efficacy at human dopamine D2 receptor expressed in CHO cells assessed as increase in GTPgamma35S binding by scintillation proximity assay relative to dopamine; type: functional, cell-based
Rhesus monkey = experiment: Bronchorelaxant activity in rhesus monkey assessed as inhibition of methacholine-induced bronchoconstriction; type: functional; conditions: Macaca mulatta
[8] = molecular target: T1, Beta-2 adrenergic receptor; experiment: Agonist activity at beta2-adrenoceptor in human bronchial smooth-muscle cell by cAMP assay; type: functional
Target sequence in this assay (P07550 whole entry): as above

[9] = molecular target: T1, Beta-2 adrenergic receptor; experiment: Ratio of indacaterol Ki to compound Ki for human beta2-adrenoceptor
Target sequence in this assay (P07550 whole entry, looked up): as the sequence (P07550 whole entry) above

[10] = molecular target: T1, Beta-2 adrenergic receptor; experiment: Ratio of indacaterol EC50 to compound EC50 for beta2-adrenoceptor in human bronchial smooth-muscle cell by cAMP assay; type: functional
Target sequence in this assay (P07550 whole entry, looked up): as the sequence (P07550 whole entry) above

[11] = molecular target: T1, Beta-2 adrenergic receptor; experiment: Kinetic binding affinity to human beta2-adrenoceptor
Target sequence in this assay (P07550 whole entry): as above

T2 sequence (P14416 whole entry): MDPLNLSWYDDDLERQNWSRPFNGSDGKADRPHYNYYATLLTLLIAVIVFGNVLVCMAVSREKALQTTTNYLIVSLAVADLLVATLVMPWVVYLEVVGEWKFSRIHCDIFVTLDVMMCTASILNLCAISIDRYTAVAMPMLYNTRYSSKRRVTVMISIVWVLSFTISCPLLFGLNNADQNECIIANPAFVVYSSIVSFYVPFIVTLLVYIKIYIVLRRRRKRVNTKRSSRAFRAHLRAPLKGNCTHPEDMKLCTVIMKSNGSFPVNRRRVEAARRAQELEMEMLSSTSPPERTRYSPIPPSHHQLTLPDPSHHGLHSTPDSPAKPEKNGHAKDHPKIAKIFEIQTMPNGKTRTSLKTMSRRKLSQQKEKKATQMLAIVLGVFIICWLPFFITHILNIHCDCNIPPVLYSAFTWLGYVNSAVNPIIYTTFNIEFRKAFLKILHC
Beta-2 adrenergic receptor (Cavia porcellus), sequence (Q8K4Z4 whole entry, looked up): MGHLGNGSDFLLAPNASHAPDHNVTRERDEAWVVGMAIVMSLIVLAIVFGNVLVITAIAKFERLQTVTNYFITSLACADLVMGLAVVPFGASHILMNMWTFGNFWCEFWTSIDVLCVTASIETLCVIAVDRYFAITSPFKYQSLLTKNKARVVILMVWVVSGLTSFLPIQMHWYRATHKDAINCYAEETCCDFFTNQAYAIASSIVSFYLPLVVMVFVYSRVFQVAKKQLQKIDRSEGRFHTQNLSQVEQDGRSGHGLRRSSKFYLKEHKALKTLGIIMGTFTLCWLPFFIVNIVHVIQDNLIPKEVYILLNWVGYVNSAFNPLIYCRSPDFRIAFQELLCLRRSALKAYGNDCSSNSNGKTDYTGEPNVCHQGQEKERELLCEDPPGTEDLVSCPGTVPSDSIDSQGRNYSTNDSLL
Beta-1 adrenergic receptor, sequence (P08588 whole entry): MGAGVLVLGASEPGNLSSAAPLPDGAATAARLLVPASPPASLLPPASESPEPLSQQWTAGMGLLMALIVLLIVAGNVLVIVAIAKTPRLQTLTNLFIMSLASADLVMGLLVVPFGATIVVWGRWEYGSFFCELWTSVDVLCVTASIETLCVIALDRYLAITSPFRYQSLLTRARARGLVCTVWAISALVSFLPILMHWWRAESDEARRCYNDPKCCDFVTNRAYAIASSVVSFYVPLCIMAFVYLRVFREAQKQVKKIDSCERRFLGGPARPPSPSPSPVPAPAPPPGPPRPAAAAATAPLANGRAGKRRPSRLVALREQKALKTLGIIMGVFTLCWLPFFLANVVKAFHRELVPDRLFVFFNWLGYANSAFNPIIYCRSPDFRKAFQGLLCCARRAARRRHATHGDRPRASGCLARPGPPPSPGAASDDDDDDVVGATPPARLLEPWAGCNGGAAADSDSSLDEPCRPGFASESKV
Beta-2 adrenergic receptor (Cavia porcellus, UniProt Q8K4Z4), sequence (Q8K4Z4 whole entry): as the sequence (Q8K4Z4 whole entry, looked up) above

Row | Structure (SMILES) | Ratio Ki (Homo sapiens) | pKi [1] | pKi [2] | TIME [4] | further results
1 | CCc1cc2c(cc1CC)CC(NCC(O)c1ccc(O)c3[nH]c(=O)c(C)cc13)C2 (racemic) | 0.59 | 6.64 | 6.42 | – | –
2 | Cc1c(C)c(C)c2c(c1C)CC(NC[C@H](O)c1ccc(O)c3[nH]c(=O)ccc13)C2 | 2.4 | 6.38 | 6.76 | – | –
3 | NC(=O)C(c1ccccc1)(c1ccccc1)[C@@H]1CCN(CCc2ccc3c(c2)CCO3)C1 [DARIFENACIN] | – | – | – | 0.5 h | Efficacy [3]: 85%
4 | CCc1cc2c(cc1CC)CC(NCCc1ccc(O)c3[nH]c(=O)ccc13)C2 | 1.8 | 6.32 | 6.58 | 2.18 h | pIC50 [5]: 6.62; pEC50 (D(2) dopamine receptor [6]): < 5.00
5 | CCCCc1ccc2c(c1)CC(NC[C@H](O)c1ccc(O)c3[nH]c(=O)ccc13)C2 (some centres undefined) | 13.4 | 6.59 | 7.71 | – | –
6 | CCc1cc2c(cc1CC)CC(NCC(O)c1c(C)cc(O)c3[nH]c(=O)ccc13)C2 (racemic) | > 19 | < 5.00 | 6.29 | – | –
7 | O=c1[nH]c2c(O)ccc(CCNCCS(=O)(=O)CCCOCCc3ccccc3)c2s1 [SIBENADET] | 981 | 5.41 | 8.40 | – | pEC50 (D(2) dopamine receptor [6]): 8.35; Efficacy (D(2) dopamine receptor [7]): 106%
8 | CCc1cc2c(cc1CC)CC(NC[C@H](O)c1ccc(O)c3c1CCC(=O)N3)C2 | 4.1 | 6.74 | 7.35 | 0.542 h | ED80 (Rhesus monkey): 0.0532 mg/kg; pIC50 [5]: 8.41
9 | CCc1cc2c(cc1CC)CC(C)(NC[C@H](O)c1ccc(O)c3[nH]c(=O)ccc13)C2 | 3.2 | 8.72 | 9.22 | – | pEC50 [8]: 9.55; Efficacy [3]: 116%; Ratio Ki [9]: > 10; Ratio EC50 [10]: 7.3; pKd [11]: 9.59
